# US20250296971A1, “GASTRIC INHIBITORY PEPTIDE RECEPTOR LIGANDS” (priority 2021, published 2025)
# *1 amine or outer side, *2 acyl side, *3 side chain or, on linkers, in order; H or OH if unused. Where a SMILES comes first, the peptide text is derived from it. Bridges are numbered along the chain shown (N, C = ends). [ ]: non-standard residue; d: D form. The star is where a group is joined. X17 = O=C(CC[C@H](NC(=O)CN1CCN2CCN3CCN(CC1)CC(=O)[O][Lu]([O]C(=O)C2)[O]C(=O)C3)C(=O)*)NC[C@H](O)[C@@H](O)[C@H](O)[C@H](O)CO; X20 = O=C(CC[C@H](NC(=O)CN1CCN2CCN3CCN(CC1)CC(=O)[O][Ga]([O]C(=O)C2)[O]C(=O)C3)C(=O)*)NC[C@H](O)[C@@H](O)[C@H](O)[C@H](O)CO; X3 = O=C(O)CN1CCN(CC(=O)O)CCN(CC(=O)NCCCOCCOCCOCCCN*)CCN(CC(=O)O)CC1; NH(1-deoxy-D-glucityl) = OC[C@@H](O)[C@@H](O)[C@H](O)[C@@H](O)CN*; Pro(trans-4-NH2) = O=C([C@@H]1C[C@@H](N[*:3])CN1[*:1])[*:2]; DOTA = O=C(O)CN1CCN(CC(=O)O)CCN(CC(=O)*)CCN(CC(=O)O)CC1; Trp(5-Cl) = N[C@@H](Cc1c[nH]c2ccc(Cl)cc12)C(=O)O; Pyridine(2,6-diCH2) = c1cc(C[*:1])nc(C[*:2])c1; Pro(4R-NH2) = N[C@H]1CN[C@H](C(=O)O)C1; Glutaryl = O=C(CCCC(=O)[*:2])[*:1]; Hyp = O=C(O)[C@@H]1C[C@@H](O)CN1; X1 = O=C(CN1CCC(N[*:1])CC1)[*:2]; Suc = O=C(CCC(=O)[*:2])[*:1]; Api = NC1(C(=O)O)CCNCC1; Thp = NC1(C(=O)O)CCOCC1
# Target: T1, GIPR (CHO-K1-hGIPR cells) (Homo sapiens, UniProt P48546)
# T1 construct: host or cells: CHO-K1
# T1 sequence (P48546 22-466): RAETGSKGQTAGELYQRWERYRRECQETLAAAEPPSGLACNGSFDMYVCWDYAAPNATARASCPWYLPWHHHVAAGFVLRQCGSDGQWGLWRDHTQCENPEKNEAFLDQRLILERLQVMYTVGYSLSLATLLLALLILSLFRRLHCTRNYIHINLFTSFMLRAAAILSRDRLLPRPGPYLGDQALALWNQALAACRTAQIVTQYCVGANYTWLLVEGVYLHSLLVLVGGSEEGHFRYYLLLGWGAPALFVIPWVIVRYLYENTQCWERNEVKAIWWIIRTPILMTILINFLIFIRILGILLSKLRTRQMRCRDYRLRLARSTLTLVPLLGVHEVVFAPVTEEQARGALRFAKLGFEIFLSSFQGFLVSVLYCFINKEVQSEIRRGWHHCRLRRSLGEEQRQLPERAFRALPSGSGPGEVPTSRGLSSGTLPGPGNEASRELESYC
# Test: FACS binding assay
# Settings: competition with 20 nM GIP-057, 4° C., 1 hour, read-out: pIC50 Category (converted)
# Outline: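 Read-out: flow cytometric median fluorescence intensity, APC/Cy5 channel, plotted vs peptide conc.; 4PL fit → EC50/pEC50 or IC50/pIC50. Cells: CHO-K1-hGIPR, Accutase-detached, 500.000/mL in PBS + 1% FCS. Detection: APC-streptavidin 1 μg/mL, 30 min, on ice.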
row,IC50,SMILES
1,< 10 nM,"CC[C@H](C)[C@@H]1NC(=O)[C@H](CC(C)C)NC(=O)C2(CCOCC2)NC(=O)[C@@H](NC(=O)[C@@H](CC(C)C)NC(=O)[C@H](CCC(=O)O)NC(=O)[C@@H]2C[C@@H](O)CN2C(=O)[C@H](Cc2c[nH]c3ccc(Cl)cc23)NC(=O)[C@H](Cc2c[nH]c3ccccc23)NC(=O)[C@H](CC(=O)O)NC(=O)CCC(=O)NCCCOCCOCCOCCCNC(=O)CN2CCN(CC(=O)O)CCN(CC(=O)O)CCN(CC(=O)O)CC2)CSCc2cccc(n2)CSC[C@@H](C(=O)N[C@@H](CCCCNC(=O)CN2CCN(CC(=O)O)CCN(CC(=O)O)CCN(CC(=O)O)CC2)C(N)=O)NC1=O [GIP-054, DOTA-Ttds-Asp-Trp-5Clw-Hyp-Glu-leu-[Cys(2Lut)-Thp-Leu-Ile-Cys]-Lys(DOTA)-NH2] ({X3-Suc}-DW[Trp(5-Cl)][Hyp]E[dL]C[Thp]LICK(DOTA)-NH2; linker 7-11 via Pyridine(2,6-diCH2))"
2,< 10 nM,"CC[C@H](C)[C@@H]1NC(=O)[C@H](CC(C)C)NC(=O)C2(CCN(C(=O)CN3CCN(CC(=O)O)CCN(CC(=O)O)CCN(CC(=O)O)CC3)CC2)NC(=O)[C@@H](NC(=O)[C@@H](CC(C)C)NC(=O)[C@H](CCC(=O)O)NC(=O)[C@@H]2C[C@@H](O)CN2C(=O)[C@H](Cc2c[nH]c3ccc(Cl)cc23)NC(=O)[C@H](Cc2c[nH]c3ccccc23)NC(=O)[C@H](CC(=O)O)NC(=O)CCC(=O)NCCCOCCOCCOCCCNC(=O)CN2CCN(CC(=O)O)CCN(CC(=O)O)CCN(CC(=O)O)CC2)CSCc2cccc(n2)CSC[C@@H](C(=O)N[C@@H](CCCCNC(=O)CN2CCN(CC(=O)O)CCN(CC(=O)O)CCN(CC(=O)O)CC2)C(N)=O)NC1=O [GIP-055, DOTA-Ttds-Asp-Trp-5Clw-Hyp-Glu-leu-[Cys(2Lut)-Apc(DOTA)-Leu-Ile-Cys]-Lys(DOTA)-NH2] ({X3-Suc}-DW[Trp(5-Cl)][Hyp]E[dL]C[Api](DOTA)LICK(DOTA)-NH2; linker 7-11 via Pyridine(2,6-diCH2))"
3,< 10 nM,"CC[C@H](C)[C@@H]1NC(=O)[C@H](CC(C)C)NC(=O)C2(CCN(C(=O)CN3CCN(CC(=O)O)CCN(CC(=O)O)CCN(CC(=O)O)CC3)CC2)NC(=O)[C@@H](NC(=O)[C@@H](CC(C)C)NC(=O)[C@H](CCC(=O)O)NC(=O)[C@@H]2C[C@@H](NC(=O)CN3CCN(CC(=O)O)CCN(CC(=O)O)CCN(CC(=O)O)CC3)CN2C(=O)[C@H](Cc2c[nH]c3ccc(Cl)cc23)NC(=O)[C@H](Cc2c[nH]c3ccccc23)NC(=O)[C@H](CC(=O)O)NC(=O)CCC(=O)NCCCOCCOCCOCCCNC(=O)CN2CCN(CC(=O)O)CCN(CC(=O)O)CCN(CC(=O)O)CC2)CSCc2cccc(n2)CSC[C@@H](C(=O)N[C@@H](CCCCNC(=O)CN2CCN(CC(=O)O)CCN(CC(=O)O)CCN(CC(=O)O)CC2)C(N)=O)NC1=O [GIP-056, DOTA-Ttds-Asp-Trp-5Clw-Tap(DOTA)-Glu-leu-[Cys(2Lut)-Apc(DOTA)-Leu-Ile-Cys]-Lys(DOTA)-NH2] ({X3-Suc}-DW[Trp(5-Cl)][Pro(trans-4-NH2)](DOTA)E[dL]C[Api](DOTA)LICK(DOTA)-NH2; linker 7-11 via Pyridine(2,6-diCH2))"

# Same assay, conditions: pIC50 Category, competition with 20 nM GIP-057, 4° C., 1 hour
row,SMILES,IC50
1,"CC[C@H](C)[C@@H]1NC(=O)[C@H](CC(C)C)NC(=O)C2(CCN(C(=O)[C@H](CCC(=O)NC[C@H](O)[C@@H](O)[C@H](O)[C@H](O)CO)NC(=O)CN3CCN4CCN5CCN(CC3)CC(=O)[O][Ga]([O]C(=O)C4)[O]C(=O)C5)CC2)NC(=O)[C@@H](NC(=O)[C@@H](CC(C)C)NC(=O)[C@H](CCC(=O)O)NC(=O)[C@@H]2C[C@@H](N)CN2C(=O)[C@H](Cc2c[nH]c3ccc(Cl)cc23)NC(=O)[C@H](Cc2c[nH]c3ccccc23)NC(=O)[C@H](CC(=O)O)NC(=O)CN2CCC(NC(=O)CCCC(=O)NC[C@H](O)[C@@H](O)[C@H](O)[C@H](O)CO)CC2)CSCc2cccc(n2)CSC[C@@H](C(=O)NC2CCN(CC(=O)N[C@H](CCC(=O)NC[C@H](O)[C@@H](O)[C@H](O)[C@H](O)CO)C(N)=O)CC2)NC1=O [GIP-059, AGLU-Glutar-APAc-Asp-Trp-5Clw-Tap-Glu-leu-[Cys(2Lut)-Apc(GaDOTA-glu(AGLU))-Leu-Ile-Cys]-APAc-glu(AGLU)-NH2] ({NH(1-deoxy-D-glucityl)-Glutaryl}-[X1]DW[Trp(5-Cl)][Pro(4R-NH2)]E[dL]C[Api](X20)LIC[X1][dE](NH(1-deoxy-D-glucityl))-NH2; linker 8-12 via Pyridine(2,6-diCH2))",< 10 nM
2,"CC[C@H](C)[C@@H]1NC(=O)[C@H](CC(C)C)NC(=O)C2(CCN(C(=O)[C@H](CCC(=O)NC[C@H](O)[C@@H](O)[C@H](O)[C@H](O)CO)NC(=O)CN3CCN4CCN5CCN(CC3)CC(=O)[O][Lu]([O]C(=O)C4)[O]C(=O)C5)CC2)NC(=O)[C@@H](NC(=O)[C@@H](CC(C)C)NC(=O)[C@H](CCC(=O)O)NC(=O)[C@@H]2C[C@@H](N)CN2C(=O)[C@H](Cc2c[nH]c3ccc(Cl)cc23)NC(=O)[C@H](Cc2c[nH]c3ccccc23)NC(=O)[C@H](CC(=O)O)NC(=O)CN2CCC(NC(=O)CCCC(=O)NC[C@H](O)[C@@H](O)[C@H](O)[C@H](O)CO)CC2)CSCc2cccc(n2)CSC[C@@H](C(=O)NC2CCN(CC(=O)N[C@H](CCC(=O)NC[C@H](O)[C@@H](O)[C@H](O)[C@H](O)CO)C(N)=O)CC2)NC1=O [GIP-061, AGLU-Glutar-APAc-Asp-Trp-5Clw-Tap-Glu-leu-[Cys(2Lut)-Apc(LuDOTA-glu(AGLU))-Leu-Ile-Cys]-APAc-glu(AGLU)-NH2] ({NH(1-deoxy-D-glucityl)-Glutaryl}-[X1]DW[Trp(5-Cl)][Pro(4R-NH2)]E[dL]C[Api](X17)LIC[X1][dE](NH(1-deoxy-D-glucityl))-NH2; linker 8-12 via Pyridine(2,6-diCH2))",< 10 nM
